Laboratory results from PMC8708390, “Fatty Acid Modification of the Anticancer Peptide LVTX-9 to Enhance Its Cytotoxicity against Malignant Melanoma Cells” (Toxins, 2021).
Where no end group is shown, it is not given here.

Experiments:
[1] = Circular dichroism secondary structure; assay type: physicochemical; conditions: 100 µM, 25 °C, 180-280 nm
Method: (§1) Dynamic light scattering (DLS) of Zetasizer Nano ZSP (Malvern Instruments, Malvern, UK) apparatus was used to determine the hydrodynamic size and zeta potential of LVTX-9 and LVTX-9-C18. The peptides concentrations were diluted to 100 µM with ultrapure water with a final volume of 1 mL. The procedure ran at 25 °C, with each experiment repeated three times. The secondary structures of LVTX-9 and LVTX-9-C18 were determined to be in line with the previous protocol. The peptide concentrations were then diluted to 100 µM with ultrapure water and 100 mM of SDS was added in a final volume of 250 μL. The procedure was carried out at 25 °C. CD spectra were recorded between 180 nm and 280 nm on a Jasco J-815 CD spectrometer.

B16-F10 tumor spheroids = assay: Toxicity in 3D tumor spheroids; assay type: cell-based, mouse; conditions: 50 or 25 μM, RPMI-1640 with 10% serum, 3 days
Method: To further study the toxicity of LVTX-9 and LVTX-9-C18 in vitro, B16-F10 tumor spheroids, as 3D tumor models, were cultured according to protocols in the literature. Briefly, B16-F10 cells were seeded into an ultra-low attachment, 96-well, round-bottom plate (Corning) and cultured at 37 °C for 3–4 days. Then, the B16-F10 tumor spheroids were treated with 50 or 25 μM of LVTX-9 and 20 or 10 μM of LVTX-9-C18 in the RPMI-1640 supplied with 10% serum for 3 days. Subsequently, images were taken on days 0 and 3, and the cell viability was measured using a CellTiter-Glo 3D Cell Viability Assay (G9683).

[2] = RP-HPLC retention time as measure of hydrophobicity; assay type: physicochemical; conditions: chromatographic, Vydac C18 300 Å 4.6 × 250 mm, 1.0 mL/min, gradient 30-100% acetonitrile/0.1% TFA, 215 nm, column 25 ± 5 °C; maximum height of peak
Method: Peptides were synthesized using the Fmoc SPPS methods. Briefly, the peptide LVTX-9 (AC-[…]-amide) was prepared on Rink Amide AM resin at a 0.2 mmol scale. A 4-fold excess of the Fmoc-protected amino acids was coupled with the Rink Amide AM resin using HCTU and HOBT as the activating agents in 5% NMM/DMF. After the synthesis of LVTX-9, the N-terminal Fmoc group was removed using 20% piperidine. As in the previous steps, a series of fatty acids (C12-C20) was activated in HCTU and HOBT using 5% NMM/DMF, and coupled to peptidyl resin for 2 h. Peptides were cleaved using trifluoroacetic acid (TFA)/thioanisole (TIS)/anisole (95:3:2 (v/v)) for 2.5 h, and the collected lysate was precipitated in cold diethyl ether three times. The precipitate was air-dried naturally. Next, the obtained crude products were purified using RP-HPLC (C18, 4.6 mm × 250 mm) on the basis of a 0.1% TFA/acetonitrile gradient from 30% to 100% in 46 min. Then, we collected the eluted peptides and determined the molecular mass using MALDI-TOF MS (AB, SCIEX, Waltham, MA, USA).
Figure 2 Purification and identification of five lipopeptides using RP-HPLC and MALDL-TOF MS: The purification of (A) LVTX-9-C12, (B) LVTX-9-C14, (C) LVTX-9-C16, (D) LVTX-9-C18, and (E) LVTX-9-C20 was performed using RP-HPLC (column, Vydac, C18, 300 Å, 4.6 × 250 mm). The lipopeptides were separated at a flow rate of 1.0 mL/min under a gradient of 30–100% acetonitrile/0.1% TFA. The elution of lipopeptides was monitored at 215 nm. Identification of (F) LVTX-9-C12, (G) LVTX-9-C14, (H) LVTX-9-C16, (I) LVTX-9-C18, and (J) LVTX-9-C20 by MALDI-TOF MS, respectively. The red star (*) represents the target peak. […]
Table S1. Purification gradient of peptides.
Time (min) Flow Rate (mL/min) A% B%
Wavelength: 215 nm/280 nm, column temperature: 25 ± 5 ℃, A: ddH2O (0.1% TFA), B: acetonitrile
(1 picture or pasted object on this page, not shown here)

B16-F10 cells [3] = assay: Trypan blue staining; assay type: cell-based, mouse; conditions: 50 μM, 24 h, 0.04% trypan blue 4 min
Method: B16-F10 cells were seeded into a 48-well plate (2 × 10^3 cells/well) for 24 h and treated with LVTX-9 (50 μM) and LVTX-9-C18 (5 μM) for 24 h. The cells were washed with PBS gently and stained with 0.04% Trypan blue for 4 min. Dead cells were stained blue.

[4] = Dynamic light scattering (hydrodynamic size, PDI, zeta potential); assay type: physicochemical; conditions: 100 µM in ultrapure water, 25 °C, repeated three times
Method: as §1

B16-F10 cells [5] = assay: Scanning electron microscopy of cell membrane; assay type: cell-based, mouse; conditions: 50 μM, 24 h
Method: The morphologic changes of the cell membrane of B16-F10 cells treated with peptides were observed by SEM [14]. The cells were seeded on coverslips and placed into a six-well plate, then treated with LVTX-9 (50 μM) and LVTX-9-C18 (5 μM) for 24 h. After incubation, the B16-F10 cells were washed with sterile PBS gently three times and fixed with 2 mL of 2.5% glutaraldehyde solution in each well for 4 h at room temperature. Then, the fixed cells were dehydrated with a series of ethanol concentrations. We dried the samples with a Critical Point Dryer and coated them with gold plating before observation. A scanning electron microscope (Hitachi Su8010, Tokyo, Japan) was used to examine the prepared samples.

B16-F10 cells [6] = assay: Colony formation assay; assay type: cell-based, mouse; conditions: 10 μM, 7 days, crystal violet, mean ± SD, n = 3, control group 51 ± 12.0
Method: To detect the proliferation of B16-F10 cells treated with LVTX-9 and LVTX-9-C18 at low concentrations, digested cells were counted using a Cellometer K2 and seeded into a 12-well plate with approximately 100 cells per well. After 36 h, cells were treated with LVTX-9 (10 μM) and LVTX-9-C18 (1 μM), then incubated for 7 days at 37 °C in a humidified 5% CO2 atmosphere. Visible colonies were stained with 0.5% crystal violet and photographically recorded. The colony formation rates were calculated, and curves were manufactured by GraphPad prism 5.0.

Substance: ASIGALIQKAIALIKAKAA-NH2 (C-terminus assumed) [LVTX-9]
- secondary structure (CD) in 100 mM of SDS ([1]; 100 mM SDS): α-helical conformation
- secondary structure (CD) in ultrapure water ([1]; ultrapure water): random coil conformation
- growth of B16-F10 tumor spheroids at 50 or 25 μM (B16-F10 tumor spheroids): gradually grew
- TR (retention time, RP-HPLC; indicates the hydrophobicity of the peptides) [2]: 15.21 min
- trypan blue staining at 50 μM (B16-F10 cells [3]): almost unstained
- PDI (hydrodynamic size, DLS) [4]: 0.65 ± 0.0481
- cell membrane morphology by SEM at 50 μM (B16-F10 cells [5]): intact membranes with smooth surfaces
- colony number at 10 μM (B16-F10 cells [6]): 58 ± 11.4
